According to patent US10577363B2, “Substituted piperidine compounds” (EPIZYME, INC., priority 2014, dated 2020):

Experiments:
SMYD3 [1] = biological target: T1, SMYD3 (Homo sapiens (Human), UniProt Q9H7B4); assay: SMYD3 biochemical assay (SPA, 3H-SAM methylation of MEKK2 protein substrate); details: read-out: SMYD3 Biochem IC50*
In short: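 Full-length native human SMYD3 (E. coli-expressed, tags removed) preincubated with compounds 30 min at room temperature, then reaction started with 3H-SAM and GST-tagged MEKK2 protein in 25 mM Tris-Cl pH 8.0, 1 mM TCEP, 0.005% BSG, 0.005% Tween 20. Quenched with unlabelled SAM (100 uM final); 3H-MEKK2 counted by SPA.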

SMYD3 [2] = biological target: T1, SMYD3; assay: SMYD3 cell assay (Trimethyl-MEKK2 In-Cell Western in 293T/17 cells); type: cell-based; details: read-out: SMYD3 Cell IC50*
In short: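 In-Cell Western ratio of trimethyl-Lys260 MEKK2 to anti-flag signal; percent inhibition from DMSO and maximum-inhibition controls, IC50 by non-linear regression, triplicates.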

[3] = IC50 values are an average of n = 1 to n = 50

T1 sequence (Q9H7B4 whole entry): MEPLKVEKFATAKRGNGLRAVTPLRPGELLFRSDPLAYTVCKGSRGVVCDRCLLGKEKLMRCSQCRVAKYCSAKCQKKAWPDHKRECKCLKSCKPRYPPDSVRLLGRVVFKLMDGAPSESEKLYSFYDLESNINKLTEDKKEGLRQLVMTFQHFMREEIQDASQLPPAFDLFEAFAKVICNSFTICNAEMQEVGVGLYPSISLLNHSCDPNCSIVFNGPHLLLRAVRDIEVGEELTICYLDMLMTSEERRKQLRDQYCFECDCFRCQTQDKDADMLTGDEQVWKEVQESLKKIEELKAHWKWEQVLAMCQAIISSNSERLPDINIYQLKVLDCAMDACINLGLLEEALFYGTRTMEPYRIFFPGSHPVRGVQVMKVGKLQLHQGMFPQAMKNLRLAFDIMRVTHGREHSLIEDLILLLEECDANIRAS

SMILES | IC50 (SMYD3 [1]) | IC50 (SMYD3 [2]) | IC50 (SMYD3 [1]; [3]) | IC50 (SMYD3 [2]; [3])
CC1CN(C)CCN1S(=O)(=O)N1[C@@H]2CC[C@H]1C[C@@H](NC(=O)c1cc(C3CC3)on1)C2 (stereo partly drawn) [compound 950, 5-cyclopropyl-N-((1R,3r,5S)-8-((2,4-dimethylpiperazin-1-yl)sulfonyl)-8-azabicyclo[3.2.1]octan-3-yl)isoxazole-3-carboxamide] | 52.9 nM | 390 nM |  | 
CN(C1CCCNC1)S(=O)(=O)N1[C@@H]2CC[C@H]1C[C@@H](NC(=O)c1cc(C3CC3)on1)C2 (stereo partly drawn) [compound 951, 5-cyclopropyl-N-((1R,3r,5S)-8-(N-methyl-N-(piperidin-3-yl)sulfamoyl)-8-azabicyclo[3.2.1]octan-3-yl)isoxazole-3-carboxamide] | 54.1 nM | 395 nM |  | 
CN1CCC[C@H](S(=O)(=O)N2[C@@H]3CC[C@H]2C[C@@H](NC(=O)c2cc(C4CC4)on2)C3)C1 [compound 952, 5-cyclopropyl-N-((1R,3S,5S)-8-(((S)-1-methylpiperidin-3-yl)sulfonyl)-8-azabicyclo[3.2.1]octan-3-yl)isoxazole-3-carboxamide] | 56.2 nM | 281 nM |  | 
O=C(N[C@H]1C[C@H]2CC[C@@H](C1)N2S(=O)(=O)c1ccc(CN2CCCC2)cc1)c1cc(C2CC2)on1 [compound 953, 5-cyclopropyl-N-((1R,3r,5S)-8-((4-(pyrrolidin-1-ylmethyl)phenyl)sulfonyl)-8-azabicyclo[3.2.1]octan-3-yl)isoxazole-3-carboxamide] | 57 nM | 585 nM |  | 
CC[C@H]1C[C@@H](NC(=O)c2cc(C3CC3)on2)CCN1S(=O)(=O)CC1CCN(C)CC1 [compound 954, 5-cyclopropyl-N-((2S,4S)-2-ethyl-1-(((1-methylpiperidin-4-yl)methyl)sulfonyl)piperidin-4-yl)isoxazole-3-carboxamide] | 57.9 nM | 583 nM |  | 
COCCN1C2CCC1CN(S(=O)(=O)N1[C@@H]3CC[C@H]1C[C@@H](NC(=O)c1cc(C4CC4)on1)C3)C2 [compound 955, 5-cyclopropyl-N-((1R,3r,5S)-8-((8-(2-methoxyethyl)-3,8-diazabicyclo[3.2.1]octan-3-yl)sulfonyl)-8-azabicyclo[3.2.1]octan-3-yl)isoxazole-3-carboxamide] | 59.2 nM | 373 nM |  | 
O=C(N[C@H]1C[C@H]2CC[C@@H](C1)N2S(=O)(=O)C[C@H]1CCCN1)c1cc(C2CC2)on1 [compound 956, 5-cyclopropyl-N-((1R,3R,5S)-8-((((R)-pyrrolidin-2-yl)methyl)sulfonyl)-8-azabicyclo[3.2.1]octan-3-yl)isoxazole-3-carboxamide] | 59.6 nM | 733 nM |  | 
C[C@H]1CN(S(=O)(=O)[C@H]2CC[C@@H](N(C)C)CC2)CC[C@H]1NC(=O)c1cc(C2CC2)on1 [compound 957, 5-cyclopropyl-N-((3S,4R)-1-(((1s,4R)-4-(dimethylamino)cyclohexyl)sulfonyl)-3-methylpiperidin-4-yl)isoxazole-3-carboxamide] | 69 nM | 512 nM |  | 
O=C(N[C@H]1C[C@H]2CC[C@@H](C1)N2S(=O)(=O)N1CCC(Nc2ncccn2)CC1)c1cc(C2CC2)on1 [compound 958, 5-cyclopropyl-N-((1R,3r,5S)-8-((4-(pyrimidin-2-ylamino)piperidin-1-yl)sulfonyl)-8-azabicyclo[3.2.1]octan-3-yl)isoxazole-3-carboxamide] | 76.7 nM | 486 nM |  | 
NCCc1ccc(S(=O)(=O)N2[C@@H]3CC[C@H]2C[C@@H](NC(=O)c2cc(C4CC4)on2)C3)cc1 [compound 959, N-((1R,3r,5S)-8-((4-(2-aminoethyl)phenyl)sulfonyl)-8-azabicyclo[3.2.1]octan-3-yl)-5-cyclopropylisoxazole-3-carboxamide] | 79.7 nM | ≥ 10000 nM |  | 
C[C@H]1C[C@@H](NC(=O)c2cc(C3CC3)on2)CCN1S(=O)(=O)N1CCNC[C@H]1c1ccccc1 [compound 960, 5-cyclopropyl-N-((2S,4S)-2-methyl-1-(((R)-2-phenylpiperazin-1-yl)sulfonyl)piperidin-4-yl)isoxazole-3-carboxamide] | 80.6 nM | 1350 nM |  | 
CN(CCC(F)(F)F)C1CCN(S(=O)(=O)N2[C@@H]3CC[C@H]2C[C@@H](NC(=O)c2cc(C4CC4)on2)C3)CC1 [compound 961, 5-cyclopropyl-N-((1R,3r,5S)-8-((4-(methyl(3,3,3-trifluoropropyl)amino)piperidin-1-yl)sulfonyl)-8-azabicyclo[3.2.1]octan-3-yl)isoxazole-3-carboxamide] | 81.6 nM | 364 nM |  | 
CNC(C)(C)c1ccc(S(=O)(=O)N2[C@@H]3CC[C@H]2C[C@@H](NC(=O)c2cc(C4CC4)on2)C3)cc1 [compound 962, 5-cyclopropyl-N-((1R,3r,5S)-8-((4-(2-(methylamino)propan-2-yl)phenyl)sulfonyl)-8-azabicyclo[3.2.1]octan-3-yl)isoxazole-3-carboxamide] | 81.8 nM | 695 nM |  | 
CCC1CN(C)CCN1S(=O)(=O)N1[C@@H]2CC[C@H]1C[C@@H](NC(=O)c1cc(C3CC3)on1)C2 (stereo partly drawn) [compound 963, 5-cyclopropyl-N-((1R,3r,5S)-8-((2-ethyl-4-methylpiperazin-1-yl)sulfonyl)-8-azabicyclo[3.2.1]octan-3-yl)isoxazole-3-carboxamide] | 82.9 nM | 690 nM |  | 
CN1CCCC[C@@H]1CS(=O)(=O)N1[C@@H]2CC[C@H]1C[C@@H](NC(=O)c1cc(C3CC3)on1)C2 [compound 964, 5-cyclopropyl-N-((1R,3R,5S)-8-((((R)-1-methylpiperidin-2-yl)methyl)sulfonyl)-8-azabicyclo[3.2.1]octan-3-yl)isoxazole-3-carboxamide] | 83 nM | 450 nM |  | 
CCCc1cc(C(=O)N[C@H]2C[C@H]3CC[C@@H](C2)N3S(=O)(=O)CC2CCN(C)CC2)no1 [compound 965, N-((1R,3r,5S)-8-(((1-methylpiperidin-4-yl)methyl)sulfonyl)-8-azabicyclo[3.2.1]octan-3-yl)-5-propylisoxazole-3-carboxamide] | 85.3 nM | 1310 nM |  | 
O=C(N[C@H]1CCN(S(=O)(=O)N2CCNCC2)[C@@H](Cc2ccccc2)C1)c1cc(C2CC2)on1 [compound 966, N-((2S,4S)-2-benzyl-1-(piperazin-1-ylsulfonyl)piperidin-4-yl)-5-cyclopropylisoxazole-3-carboxamide] | 86.8 nM | 1200 nM |  | 
O=C(N[C@H]1C[C@H]2CC[C@@H](C1)N2S(=O)(=O)N1CC2CCC(C1)N2CCN1CCOCC1)c1cc(C2CC2)on1 [compound 967, 5-cyclopropyl-N-((1R,3r,5S)-8-((8-(2-morpholinoethyl)-3,8-diazabicyclo[3.2.1]octan-3-yl)sulfonyl)-8-azabicyclo[3.2.1]octan-3-yl)isoxazole-3-carboxamide] |  |  | 87 nM | 503 nM
NCc1ccc(S(=O)(=O)N2[C@@H]3CC[C@H]2C[C@@H](NC(=O)c2cc(C4CC4)on2)C3)c(Cl)c1 [compound 968, N-((1R,3r,5S)-8-((4-(aminomethyl)-2-chlorophenyl)sulfony1)-8-azabicyclo[3.2.1]octan-3-yl)-5-cyclopropylisoxazole-3-carboxamide] |  |  | 88.3 nM | ≥ 10000 nM
CN1CCC[C@@H]1CS(=O)(=O)N1[C@@H]2CC[C@H]1C[C@@H](NC(=O)c1cc(C3CC3)on1)C2 [compound 969, 5-cyclopropyl-N-((1R,3R,5S)-8-((((R)-1-methylpyrrolidin-2-yl)methyl)sulfonyl)-8-azabicyclo[3.2.1]octan-3-yl)isoxazole-3-carboxamide] |  |  | 88.6 nM | 440 nM
CCc1cc(C(=O)N[C@H]2C[C@H]3CC[C@@H](C2)N3S(=O)(=O)c2ccc(C(C)(C)N)cc2)no1 [compound 970, N-((1R,3r,5S)-8-((4-(2-aminopropan-2-yl)phenyl)sulfonyl)-8-azabicyclo[3.2.1]octan-3-yl)-5-ethylisoxazole-3-carboxamide] |  |  | 89.3 nM | 748 nM
O=C(N[C@H]1C[C@H]2CC[C@@H](C1)N2S(=O)(=O)C[C@H]1CCCCN1)c1cc(C2CC2)on1 [compound 971, 5-cyclopropyl-N-((1R,3R,5S)-8-((((R)-piperidin-2-yl)methyl)sulfonyl)-8-azabicyclo[3.2.1]octan-3-yl)isoxazole-3-carboxamide] |  |  | 90.8 nM | 466 nM
C[C@H]1C[C@@H](NC(=O)c2cc(C3CC3)on2)CCN1S(=O)(=O)N1CCC(NC(C)(C)c2ccccc2)CC1 [compound 972, 5-cyclopropyl-N-((2S,4S)-2-methyl-1-((4-((2-phenylpropan-2-yl)amino)piperidin-1-yl)sulfonyl)piperidin-4-yl)isoxazole-3-carboxamide] |  |  | 93.3 nM | 1270 nM
CN(CCN1CCOCC1)C1CCN(S(=O)(=O)N2[C@@H]3CC[C@H]2C[C@@H](NC(=O)c2cc(C4CC4)on2)C3)CC1 [compound 973, 5-cyclopropyl-N-((1R,3r,5S)-8-((4-(methyl(2-morpholinoethyl)amino)piperidin-1-yl)sulfonyl)-8-azabicyclo[3.2.1]octan-3-yl)isoxazole-3-carboxamide] |  |  | 95.3 nM | 1020 nM
CC[C@@H]1CN(S(=O)(=O)N2CC[C@H](NC(=O)c3cc(C4CC4)on3)C[C@@H]2C)CCN1 [compound 974, 5-cyclopropyl-N-((2S,4S)-1-(((R)-3-ethylpiperazin-1-yl)sulfonyl)-2-methylpiperidin-4-yl)isoxazole-3-carboxamide] |  |  | 99 nM | 807 nM
CC(C)C1CNCCN1S(=O)(=O)N1CC[C@H](NC(=O)c2cc(C3CC3)on2)C[C@@H]1C (stereo partly drawn) [compound 975, 5-cyclopropyl-N-((2S,4S)-1-((2-isopropylpiperazin-1-yl)sulfonyl)-2-methylpiperidin-4-yl)isoxazole-3-carboxamide] |  |  | 101 nM | 914 nM
